# Experimental data as given in publication PMC4533973, “Synthesis and Evaluation of Chloramphenicol Homodimers: Molecular Target, Antimicrobial Activity, and Toxicity against Human Cells” (PLoS ONE, 2015).
# Read-outs that look alike come from different tables or passages of the source.
# Assays:
# [1] = test system: Escherichia coli ribosomes; parameters: method as in earlier work; settings: equilibrium dialysis, cited from earlier work
# [2] = test system: Jurkat cells; test: Toxicity assays in Jurkat cells (cell counting, necrosis and apoptosis by flow cytometry); type: cell-based, Human; settings: 60 μM; flow cytometry
# Protocol: Fig 8 Toxicity assays in Jurkat cells. Jurkat cells were adjusted to 1×10^9 cells/L in RPMI-1640 medium containing 1% Penicillin/Streptomycin and 10% fetal bovine serum. The cells were grown in triplicate in the presence or absence of compound 5 at the indicated concentrations for 4 days at 37°C, under a humidified 5% CO2 atmosphere. CAM was used as a reference compound. For cell necrosis and apoptosis assays, samples (10^6 cells) were collected daily and determined by flow cytometry. Apoptotic and necrotic cells were expressed as a percentage of total cells.
# Human leukemic cell lines, HS-Sultan (Burkitt’s lymphoma), Jurkat (T-cell acute lymphoblastic leukemia), and U937 (histiocytic lymphoma), were adjusted to 1×10^9 cells/l in RPMI-1640 medium supplemented with 10% fetal bovine serum and 1% penicillin/streptomycin. The cells were grown in triplicate in the absence (control cultures) or presence of CAM or CAM dimers for 4 days at 37°C, under a humidified 5% CO2 atmosphere. The medium was changed daily; CAM or CAM dimer addition was repeated after medium change. Aliquots were collected daily and counted in a CELL-DYN 3700 Hematology Analyzer. For cell necrosis and apoptosis assays, samples (10^6 cells) were collected and determined using the Annexin V-PE Apoptosis Detection Kit I (BD Pharmingen) for flow cytometry, according to the manufacturers’ instructions. Flow cytometry data were analyzed using the FlowJo flow cytometry analysis software. Necrotic and apoptotic cells were expressed as a percentage of total cells.
# [3] = test system: S. aureus (WT); test: Antibacterial activity (growth inhibition, EC50); type: cell-based; settings: Staphylococcus aureus
# Description: (§1) A.S. Mankin (University of Illinois). E. coli ΔtolC strain BL21 DE3 with impaired AcrAB-TolC, a proton-dependent MDR efflux pump causing multidrug resistance, was offered by Dr D.N. Wilson (University of Munich) and included in our study to test if this mechanism of resistance affects the efficacy of CAM dimers. […] I. Spiliopoulou (National Reference Laboratory for Staphylococci, School of Medicine, University of Patras, Greece). Finally, E. coli strain Rosetta(DE3)pLysS, containing a chloramphenicol resistant gene in the pLysS plasmid, was purchased from Novagen and was also included in our study. Briefly, S. aureus or E. coli cells (200 μl of a 0.700 OD560 preculture) containing wild-type or mutant ribosomes were added in 3.8 ml of LB (Luria-Bertani) medium and grown at 37°C in the presence or absence of CAM or CAM dimers until the optical density of the control culture (grown in the absence of drug) reached the value 0.700 at 560 nm. For E. faecium and P. aeruginosa cultures, TSB (Tryptic Soy Broth) medium was used, instead of LB medium, in order to achieve exponential doubling times between 25 and 35 minutes. From dose-response curves, the half-maximal effective concentration (EC50) for each compound and strain was estimated. EC50 represents the molar concentration of a compound that produces 50% of the maximal possible effect. The EC50 values were mathematically determined by non linear regression fitting of the observed culture optical-density values, expressed as the percentage of 0.700 (y), into Hill Equation, y=min+max−min/1+(x/EC50)^−n where min and max are the lowest and highest observed values of the culture optical density, respectively, x the concentration of the tested compound, and n the Hill coefficient that represents the largest absolute value of the curve slope. EC50 is equal to the x- value of the sigmoid’s midpoint. Fitting was performed using the Four Parameter Logistic Curve of the SigmaPlot Program Version 11.0 (Systat Software, Inc) for Exact Graphs and Data Analysis.
# [4] = test system: MRSA (GRE2691); test: Antibacterial activity (growth inhibition, EC50); type: cell-based; settings: Staphylococcus aureus
# Description: as §1
# [5] = test system: E. faecium (GRE5152); test: Antibacterial activity (growth inhibition, EC50); type: cell-based; settings: Enterococcus faecium
# Description: as §1
# [6] = test system: MRSA (GRE2272); test: Antibacterial activity (growth inhibition, EC50); type: cell-based; settings: Staphylococcus aureus
# Description: as §1
# [7] = test system: post-translocation ribosomal complex (complex C) derived from E. coli; parameters: method as in Xaplanteri et al., [6]; settings: ref Xaplanteri et al., [6], cited from earlier work
# [8] = biological target: ribosome; parameters: method as in PMID 14654696; settings: read-out: K i, cryptic low-affinity site (entrance to the exit tunnel); cited from earlier work
# [9] = test system: P. aeruginosa (GRE5288); test: Antibacterial activity (growth inhibition, EC50); type: cell-based, Pseudomonas aeruginosa
# Description: as §1
# [10] = test system: E. coli (A2058G); test: Antibacterial activity (growth inhibition, EC50); type: cell-based, Escherichia coli; settings: Escherichia coli
# Description: as §1
# [11] = test system: E. coli Rosetta(DE3)pLysS; test: Antibacterial activity (growth inhibition, EC50); type: cell-based, Escherichia coli; settings: Escherichia coli
# Description: as §1
# [12] = test system: E. coli (ΔtolC); test: Antibacterial activity (growth inhibition, EC50); type: cell-based, Escherichia coli
# Description: as §1
# [13] = test system: E. coli (A2503C); test: Antibacterial activity (growth inhibition, EC50); type: cell-based, Escherichia coli; settings: Escherichia coli
# Description: as §1
# [14] = test system: E. coli (WT); test: Antibacterial activity (growth inhibition, EC50); type: cell-based, Escherichia coli
# Description: as §1
structure (smiles),measurement,setting,value
"O=C(N[C@H](CO)[C@H](O)c1ccc([N+](=O)[O-])cc1)C(Cl)Cl [CAM, chloramphenicol]",Kd,"[1]; read-out: K D, high affinity site",2 µM
same,Kd,"[1]; read-out: K D, low affinity site",200 µM
same,"apoptosis, expressed as a percentage of total cells",[2],did not induce any necrosis/apoptosis effect
same,necrosis,[2],did not induce any necrosis/apoptosis effect
same,EC50,[3],2.9 ± 0.1 µM
same,EC50,[4],12.8 ± 1.5 µM
same,EC50,[5],3.5 ± 0.3 µM
same,EC50,[6],8.4 ± 0.7 µM
same,Ki,[7]; encounter complex CI,3.1 ± 0.3 µM
same,Ki,[7]; overall inhibition constant,0.88 ± 0.07 µM
same,k off,[7],0.0165 ± 0.00067 s⁻¹
same,Ki,[8],~300 µM
same,fold higher EC50 value than wild-type E. coli,[9]; P. aeruginosa versus wild-type E. coli,6 fold
same,EC50,[9]; Pseudomonas aeruginosa,25.6 ± 2.2 µM
same,EC50,[10],15.9 ± 1.1 µM
same,EC50,[11],115 ± 16.3 µM
same,fold more sensitive than wild-type E. coli,[12]; E. coli BL21 DE3 (ΔtolC) versus wild-type E. coli,approximately 2 fold
same,EC50,"[12]; Escherichia coli, BL21-DE3",2.2 ± 0.1 µM
same,EC50,[13],24.9 ± 2.5 µM
same,EC50,"[14]; Escherichia coli, LB medium, 37°C, OD560",4.4 ± 0.2 µM
same,EC50(cell growth)/IC50(puro),"[14]; wild-type E. coli, IC50(puro) calculated from Ki* at 2 mM puromycin",0.84 ± 0.07
